Numbers after ± are expanded uncertainties.

Consider one compound from the NIST ThermoML archive (doi:10.1016/j.jct.2019.03.012).

Series [1] can be described thus: Molar enthalpy of transition or fusion. Conditions: Crystal 1; DSC.
For series [2] the following is noted: DSC. (In general: Differential scanning calorimetry records heat flow against a reference as temperature is scanned.)

In the case of `CC[NH3+].O=[N+]([O-])[O-]` [ethylammonium nitrate], in series [1], the “Molar enthalpy of transition or fusion” value was determined as 13.2 ± 0.65 kJ/mol. Further, the Triple point temperature in series [2] (Crystal 1) was found to be 285.15 ± 6 K. The Glass transition temperature in series [2] (Glass) was -41.00 ± 6 °C.
